Measurements taken from patent US20250282827A1, “LIPIDATED POLYMYXIN ANALOGUES” (priority 2021, published 2025).
In brackets after ≈: the same amount, converted by molar mass. Read-outs that look alike come from different tables or passages of the source. Positions of bridges follow the written chain, without caps; N, C: chain ends. Non-standard residues stand in square brackets, D forms with d. Residues, ends and D or L forms follow the SMILES beside them. *: point of attachment. Ethyl(2-propionyloxy) = CCC(=O)OCC*; Ethyl(2-OPiv) = CC(C)(C)C(=O)OCC*; Ethyl(2-OBz) = O=C(OCC*)c1ccccc1; Dab = NCC[C@H](N)C(=O)O; X3 = CCCC(C)C(=O)OCC*

Legend:
[1] = tested on: Vero cell line; experiment: Cellular toxicity against Vero cell line; format: cell-based; details: Vero cell line; for IC50 Vero: ± standard error
Protocol: (§1) FIG. 6 is a graph showing cell survival as a function of the indicated compound concentration. Data are representative of triplicate experiments.
(§2) To evaluate if the ClipPA modifications introduced any new toxicity, inhibitory concentrations against Vero and HaCaT cell lines were determined. […] The standard error for each measurement is shown.

[2] = tested on: HaCaT cell line; experiment: Cellular toxicity against HaCaT cell line; format: cell-based; details: HaCaT cell line; for IC50 HaCaT: ± standard error
Protocol: as §1, §2

[3] = tested on: P. aeruginosa ATCC 27853; format: cell-based, Pseudomonas aeruginosa
Description: (§3) All 81 compounds prepared in Examples 2 and 3 underwent screening against a panel of Gram-negative bacterium to assess their ability to inhibit bacterial growth. […] The median value is presented.

[4] = tested on: K. pneumoniae ATCC 700603; format: cell-based, Klebsiella pneumoniae
Description: as §3

[5] = tested on: K. pneumoniae ATCC MS6671; format: cell-based, Klebsiella pneumoniae
Description: as §3

[6] = tested on: K. pneumoniae ATCC 33495; format: cell-based, Klebsiella pneumoniae
Description: as §3

[7] = tested on: colistin-resistant E. coli; format: cell-based, Escherichia coli; details: colistin-resistant
Description: (§4) Given the promising antimicrobial activity and low toxicity associated with compounds 29, 35 and to a lesser extent 38, these compounds were progressed to a further round of phenotypic antimicrobial susceptibility testing using a panel of clinically relevant multidrug resistant Gram-negative pathogens. This panel included isolates phenotypically characterised as carbapenem-resistant Enterobacteriacea (CRE), extended spectrum β-lactamase (ESBL) producing Enterobacteriacea, colistin-resistant E. coli, carbapenem-resistant Acinetobacter baumannii (CRAB) or carbapenem-resistant Pseudomonas aeruginosa (CRPA). These isolates were chosen because each was resistant to multiple different families of clinically used antibiotics making treatment options limited and importantly, each of these pathogen types are recognised as “Priority 1: CRITICAL” on the World Health Organization (WHO) priority pathogen list for R&D of new antibiotics. Antimicrobial activity against any of these pathogens would therefore be of clinical importance. […] However, we note that many of the compounds tested in Example 4 did show good activity against colistin-resistant E. coli.

[8] = tested on: E. coli ATCC MS8345; format: cell-based, Escherichia coli
Description: as §3
Expansion of the polymyxin macrocycle by substituting […]) offered little advantage in antimicrobial activity but was generally well tolerated although for A. baumanni and P. aeruginosa this was detrimental.

[9] = tested on: A. baumannii ATCC 19606; format: cell-based, Acinetobacter baumannii
Description: as §3

[10] = tested on: carbapenem-resistant Acinetobacter baumannii (CRAB); format: cell-based; details: carbapenem-resistant (CRAB)
Description: as §4

[11] = tested on: carbapenem-resistant Pseudomonas aeruginosa (CRPA); format: cell-based; details: carbapenem-resistant (CRPA)
Description: as §4

[12] = tested on: carbapenem-resistant Enterobacteriacea (CRE); format: cell-based
Description: as §4

[13] = tested on: E. coli ATCC 25922; format: cell-based, Escherichia coli
Description: as §3

[14] = tested on: kidney organoids derived from human induced pluripotent stem cells; experiment: Nephrotoxicity on kidney organoids, renal tubule deterioration by bright field imaging; format: cell-based; details: scored after 48 h; further: key: 1 = unaffected; 2 = mild deterioration; 3 = severe deterioration; 4 = complete deterioration
Protocol: Selected polymyxin analogues were evaluated for cytotoxicity in physiologically relevant human kidney tissue, using kidney organoids derived from human induced pluripotent stem cells (Soo et al. 2018). Monolipidated analogues 29, 31, 33, containing a propyl, decyl or phenyl lipid, dilapidated compounds, 35, 38, 39, containing a propyl, tert-butyl or phenyl, lipid, respectively and the N-capped, di-lipidated (phenyl) 49 were selected.
The control compound polymyxin B and the seven ClipPA analogues were tested by adding a range of concentrations (based on Gallado-Godoy et al. 2016) to the organoids at day 12 of the protocol, shown previously to correspond to optimal maturity of the organoid tissues.
Toxicity was scored after 48 h for signs of renal tubule deterioration visible by bright field imaging (not shown).

[15] = colistin-resistant strain, median of triplicate

Compound | MIC P. aeruginosa ATCC 27853 ([3]; median of triplicate) | MIC K. pneumoniae ATCC 700603 ([4]; median of triplicate) | MIC K. pneumoniae ATCC MS6671 ([5]; median of triplicate) | MIC K. pneumoniae ATCC 33495 ([6]; median of triplicate) | Score (nephrotoxicity on kidney organoids) ([14]; 100 μM) | Score (nephrotoxicity on kidney organoids) ([14]; 300 μM) | Score (nephrotoxicity on kidney organoids) ([14]; 1 mM) | MIC E. coli ATCC MS8345 [8, 15] | MIC A. baumannii ATCC 19606 ([9]; median of triplicate) | MIC E. coli ATCC 25922 ([13]; median of triplicate) | also measured
Colistin [reference compound] | – | – | – | – | – | – | – | – | – | – | IC50 Vero [1]: 949.7 ± 75.35 µg/mL; IC50 HaCaT [2]: 2578 ± 11.41 µg/mL
C[C@@H](O)[C@@H]1NC(=O)[C@H](CCN)NC(=O)[C@H](CCN)NC(=O)[C@H](CSCCOC(=O)C(C)(C)C)NC(=O)[C@@H](Cc2ccccc2)NC(=O)[C@H](CCN)NC(=O)[C@@H](NC(=O)[C@H](CCN)NC(=O)[C@@H](NC(=O)[C@H](CCN)NC(=O)[C@@H](N)CSCCOC(=O)C(C)(C)C)[C@@H](C)O)CCNC1=O [Compound 38] (H-C(Ethyl(2-OPiv))[Dab]T[Dab][Dab][Dab][dF]C(Ethyl(2-OPiv))[Dab][Dab]T; lactam 5-C) | – | – | – | – | – | – | – | – | – | – | MIC P. aeruginosa ATCC 27853 ([3]; ATCC 27853): 4 µg/mL (≈ 2.83 µM); MIC K. pneumoniae ATCC 700603 ([4]; ATCC 700603): 0.5 µg/mL (≈ 0.354 µM); MIC K. pneumoniae ATCC MS6671 ([5]; ATCC MS6671): >32 µg/mL; MIC K. pneumoniae ATCC 33495 ([6]; ATCC 33495): 0.5 µg/mL (≈ 0.354 µM); MIC [7]: 16 µg/mL (≈ 11.3 µM); MIC E. coli ATCC MS8345 ([8]; ATCC MS8345): 16 µg/mL (≈ 11.3 µM); MIC A. baumannii ATCC 19606 ([9]; ATCC 19606): 2 µg/mL (≈ 1.42 µM); MIC [10]: 2 µg/mL (≈ 1.42 µM); MIC [11]: >32 µg/mL; MIC ([12]; E. cloacae, IMP-4): 2 µg/mL (≈ 1.42 µM); MIC ([12]; E. coli, NDM-1): 2 µg/mL (≈ 1.42 µM); MIC ([12]; K. pneumoniae, KPC-2): 2 µg/mL (≈ 1.42 µM); MIC ([12]; K. pneumoniae, NDM-5): 2 µg/mL (≈ 1.42 µM); MIC E. coli ATCC 25922 ([13]; ATCC 25922): 0.5 µg/mL (≈ 0.354 µM)
CCCC(C)C(=O)OCCSC[C@@H](N)C(=O)N[C@H](C(=O)N[C@@H](CCN)C(=O)N[C@H]1CCNC(=O)[C@H]([C@@H](C)O)NC(=O)[C@H](CCN)NC(=O)[C@H](CCN)NC(=O)[C@H](CC(C)C)NC(=O)[C@@H](Cc2ccccc2)NC(=O)[C@H](CCN)NC1=O)[C@@H](C)O (stereo partly shown) [Compound 94] (H-[dC](X3)T[Dab][Dab][Dab][dF]L[Dab][Dab]T; lactam 4-C) | 2 µg/mL (≈ 1.65 µM) | 2 µg/mL (≈ 1.65 µM) | >32 µg/mL | 1 µg/mL (≈ 0.827 µM) | 1 | 2 | 3 | 16 µg/mL (≈ 13.2 µM) | 4 µg/mL (≈ 3.31 µM) | 1 µg/mL (≈ 0.827 µM) | –
CCC(=O)OCCSC[C@@H]1NC(=O)[C@@H](Cc2ccccc2)NC(=O)[C@H](CCN)NC(=O)[C@@H](NC(=O)[C@H](CCN)NC(=O)[C@@H](NC(=O)[C@H](CCN)NC(=O)[C@@H](N)CSCCOC(=O)c2ccccc2)[C@@H](C)O)CCNC(=O)[C@H]([C@@H](C)O)NC(=O)[C@H](CCN)NC(=O)[C@H](CCN)NC1=O [Compound 47] (H-C(Ethyl(2-OBz))[Dab]T[Dab][Dab][Dab][dF]C(Ethyl(2-propionyloxy))[Dab][Dab]T; lactam 5-C) | >32 µg/mL | 2 to 4 µg/mL | >32 µg/mL | 2 to 4 µg/mL | 1 | 2 | 3 | >32 µg/mL | >32 µg/mL | 2 to 4 µg/mL | –
C[C@@H](O)[C@@H]1NC(=O)[C@H](CCN)NC(=O)[C@H](CCN)NC(=O)[C@H](CSCCOC(=O)C(C)(C)C)NC(=O)[C@@H](Cc2ccccc2)NC(=O)[C@H](CCN)NC(=O)[C@@H](NC(=O)[C@H](CCN)NC(=O)[C@@H](NC(=O)[C@H](CCN)NC(=O)[C@@H](N)CSCCOC(=O)c2ccccc2)[C@@H](C)O)CCNC1=O [Compound 48] (H-C(Ethyl(2-OBz))[Dab]T[Dab][Dab][Dab][dF]C(Ethyl(2-OPiv))[Dab][Dab]T; lactam 5-C) | 2 µg/mL (≈ 1.4 µM) | 4 µg/mL (≈ 2.79 µM) | >32 µg/mL | 2 to 4 µg/mL | 1 | 2 | 4 | >32 µg/mL | 32 µg/mL (≈ 22.3 µM) | 2 µg/mL (≈ 1.4 µM) | –
C[C@@H](O)[C@@H]1NC(=O)[C@H](CCN)NC(=O)[C@H](CCN)NC(=O)[C@H](CSCCOC(=O)c2ccccc2)NC(=O)[C@@H](Cc2ccccc2)NC(=O)[C@H](CCN)NC(=O)[C@@H](NC(=O)[C@H](CCN)NC(=O)[C@@H](NC(=O)[C@H](CCN)NC(=O)[C@@H](N)CSCCOC(=O)c2ccccc2)[C@@H](C)O)CCNC1=O [Compound 39] (H-C(Ethyl(2-OBz))[Dab]T[Dab][Dab][Dab][dF]C(Ethyl(2-OBz))[Dab][Dab]T; lactam 5-C) | 2 µg/mL (≈ 1.38 µM) | 0.5 µg/mL (≈ 0.344 µM) | >32 µg/mL | 0.5 µg/mL (≈ 0.344 µM) | 1 | 3 | 4 | 4 µg/mL (≈ 2.75 µM) | 2 µg/mL (≈ 1.38 µM) | 0.5 µg/mL (≈ 0.344 µM) | fold more toxic compared to compound 29 [1]: ~5 fold; IC50 Vero [1]: 521.0 ± 17.05 µg/mL (≈ 359 µM); fold more toxic compared to compound 29 [2]: ~5 fold; IC50 HaCaT [2]: 657.7 ± 87.51 µg/mL (≈ 453 µM)
CCC(=O)OCCSC[C@H](N)C(=O)N[C@@H](CCN)C(=O)N[C@H](C(=O)N[C@@H](CCN)C(=O)N[C@H]1CCNC(=O)[C@H]([C@@H](C)O)NC(=O)[C@H](CCN)NC(=O)[C@H](CCN)NC(=O)[C@H](CSCCOC(=O)c2ccccc2)NC(=O)[C@@H](Cc2ccccc2)NC(=O)[C@H](CCN)NC1=O)[C@@H](C)O [Compound 44] (H-C(Ethyl(2-propionyloxy))[Dab]T[Dab][Dab][Dab][dF]C(Ethyl(2-OBz))[Dab][Dab]T; lactam 5-C) | 16 µg/mL (≈ 11.4 µM) | 0.5 µg/mL (≈ 0.356 µM) | >32 µg/mL | 0.5 µg/mL (≈ 0.356 µM) | 1 | 2 | 3 | 32 µg/mL (≈ 22.8 µM) | 32 µg/mL (≈ 22.8 µM) | 0.5 µg/mL (≈ 0.356 µM) | –
